Results as given in the OPERA property sets (Mansouri et al. 2018).
Where a SMILES comes first, the peptide text is derived from it.

| SMILES | logP |
| --- | --- |
| O=C(NP(=O)(N1CC1)N1CC1)c1ccccc1 | 0.81 |
| CC1=C2C3OC(=O)C(C)C3C(O)C(O)C2(C)C=CC1=O (stereo not given) | -0.7 |
| O=C(O)c1cccc(F)c1F | 1.88 |
| ClCC1(C(Cl)Cl)C2CC(Cl)(Cl)C1(C(Cl)Cl)C(Cl)C2(Cl)Cl (stereo not given) | 6.64 |
| COc1ccc2c(c1)CCN(C)C2 | 2.32 |
| CC1(C)SC2C(NC(=O)C(c3ccccc3)S(=O)(=O)O)C(=O)N2C1C(=O)O (stereo not given) | -0.22 |
| C1CCSC1 | 1.61 |
| c1nc2nc[nH]c(N3CCCCCC3)c-2n1 | 2.53 |
| COc1c([N+](=O)[O-])cc(C(=O)O)cc1[N+](=O)[O-] | 1.73 |
| Cc1oc2cc3oc(=O)ccc3c(C)c2c1C | 3.27 |
| CNC(=S)OCCn1c([N+](=O)[O-])cnc1C | 1.12 |
| CC(C)(C)c1cc(O)cc(C(C)(C)C)c1 | 4.64 |
| CC(C)n1cccc(O)c1=O | 0.79 |
| CCCCN(CCCC)C1CCc2c(OC)cccc2C1C (stereo not given) | 5.61 |
| COc1ccc(N2CC(N3CCCCC3)=NC2=O)cc1 | 1.5 |
| CC1CCC(NC(=O)N2C(=O)N(C)CC2O)CC1 (stereo not given) | 2.41 |
| Cc1ccccc1Nc1ccncc1S(=O)(=O)NC(=NC#N)NC(C)C | 1.67 |
| Cc1ccc(C(=O)NN=Cc2c(CO)ccc(C)c2O)cc1 | 3.39 |
| CCCCOCCCCCNC(=O)NC12CC3CC(CC(C3)C1)C2 | 5 |
| O=C1N=C(N2CCOCC2)CN1Cc1c(Cl)cccc1Cl | 1.3 |
| Nc1nc(N)c2c(N)cccc2n1 | 0.3 |
| CCOc1ccc(N)c(OCC)c1 | 2.19 |
| OCC1OC(n2cnc3c(NCCCCc4ccccc4)ncnc32)C(O)C1O (stereo not given) | 2.29 |
| COc1ccc(C2Cc3cc(OC(F)F)ccc3N(CCN(C)C)C(=O)C2OC(C)=O)cc1 (stereo not given) | 3.8 |
| COCOc1ccc(Cc2cccc(-c3c(O)c4ccc(Cl)cc4[nH]c3=O)c2)cc1 | 5.24 |

| SMILES | logP |
| --- | --- |
| O=C(Cn1cnc([N+](=O)[O-])n1)NCCCO | -1.27 |
| C=Cn1c([N+](=O)[O-])cnc1C=Cc1ccc(C(=O)O)cc1 | 2.68 |
| COc1ccccc1N1CCN(CCNCC(O)CON=C(C2CC2)C2CC2)CC1 (stereo not given) | 3.21 |
| Nc1ccc(S(=O)(=O)Nc2cccc3[nH]ccc23)cc1 | 1.41 |
| CC(C)NCC(O)COc1ccc(-c2nc(-c3cccs3)c[nH]2)cc1 (stereo not given) | 3.2 |
| COc1ccc2c(c1)C(=O)N(CCO[N+](=O)[O-])CO2 | 2.07 |
| NC(=O)c1cc(OCCNCC(O)CON=C(C2CC2)C2CC2)ccc1O (stereo not given) | 1.69 |
| CCC(C)NC(=O)NN (stereo not given) | -0.84 |
| Cn1c2c(c3cc(Cl)ccc31)CCNC2 | 2.3 |
| O=c1cc(CSC2CCCCC2)occ1O | 1.75 |
| COC(=O)c1c(N2CCOCC2)c(-c2ccc(Cl)cc2)cn1C(=O)N1CCOCC1 | 3.1 |
| COc1ccccc1N1CCN(c2ccc(Nn3c(C)ccc3C)nn2)CC1 | 3.61 |
| COCCNc1[nH]cnc2ncnc1-2 | 0.42 |
| CC(C)CC(N)C(=O)NC(CC(C)C)C(=O)NCC(=O)NC(Cc1ccccc1)C(=O)O (stereo not given) (H-LLGF-OH; configuration not given here) | -0.42 |
| COC(=O)C1=C(C)NC(C)=C(C(=O)OCc2cccnc2)C1c1cccc2c1OCO2 (stereo not given) | 3.61 |
| FC(F)(F)c1cccc(CNc2[nH]cnc3ncnc2-3)c1 | 3.08 |
| O=C1NC(Cc2c[nH]c3ccccc23)C(=O)NC1Cc1c[nH]c2ccccc12 (stereo not given) | 2.04 |
| CC(C)NCC(O)COc1ccc(-c2nc(C(C)C)c[nH]2)cc1 (stereo not given) | 2.95 |
| c1ccc(CN2CCN(CCCOn3nnc4ccccc43)CC2)cc1 | 4 |
| COC(=O)Nc1c(C(C)C)cccc1C(C)C | 2.2 |
| Clc1nc(-c2ccccc2)nc2ccccc12 | 4.47 |
| CN(C)C(C)(C)CO | 0.29 |
| CC1(C)C2Cc3ssc(=S)c3C1C2 (stereo not given) | 3.7 |
| CCNc1ncnc2c1ncn2C1OC(CO)C(O)C1O (stereo not given) | 0.01 |
| Cc1ccnc2c1NC(=O)c1cccnc1N2C1CC1 | 1.81 |

| SMILES | logP |
| --- | --- |
| COP(=O)(OC)Oc1ccc(C#N)cc1 | 0.84 |
| NC(=S)NN=C(c1ccccc1)c1ccccn1 | 1.92 |
| CCCN(CCC)C1CCc2c(O)cccc2C1 (stereo not given) | 3.58 |
| CN(C)c1cccc2nc(N)nc(N)c12 | 1.65 |
| Brc1cc(Br)c2ccc3cccc4ccc1c2c43 | 6.85 |
| OCCN1CCN(CCn2nnc3ccccc32)CC1 | -0.05 |
| CSCCC(N)C(=O)NC(CC(C)C)C(=O)NC(Cc1ccccc1)C(=O)O (stereo not given) | -1.03 |
| CCCCN1CCCC1CNC(=O)c1cc(S(N)(=O)=O)cc2c1OC(C)C2 (stereo not given) | 2.8 |
| CCOC(=O)C(Cc1ccccc1)(Cc1ccccc1)S(=O)(=O)c1ccc([N+](=O)[O-])cc1 | 3.4 |
| COC(=O)c1c(Oc2nc(OC)cc(OC)n2)cccc1C(C)=NOCc1ccccc1 | 4.01 |
| CCOc1ccccc1NC(=O)OCCN1CCCCC1 | 3.59 |
| CC(N)C(=O)NC(Cc1ccccc1)C(=O)NCC(=O)NC(C(=O)NC(Cc1ccccc1)C(=O)O)C(C)C (stereo not given) (H-AFGVF-OH; configuration not given here) | -0.59 |
| CCC(C)C(NC(=O)C(NC(=O)C(N)CC(C)C)C(C)CC)C(=O)O (stereo not drawn) (H-Leu-Ile-Ile-OH; configuration not given here) | -1.11 |
| CC(=O)Nc1ccc(/C=C/c2n[nH]c(=O)cc2C)cc1 | 1.27 |
| CC(C)C(=O)OCC(=O)C1(O)C(C)CC2C3CCC4=CC(=O)C=CC4(C)C3(F)C(O)CC21C (stereo not given) | 3.4 |
| C=CC(=O)OCCOCCO | -0.3 |
| Cc1c[nH]c(Cc2ccc(OCC(O)CNC(C)(C)C)cc2)n1 (stereo not given) | 1.4 |
| Cc1nc2c3c(c(C(=O)N(C)C)cn2c1C)CCC(c1ccccc1F)O3 (stereo not given) | 3.6 |
| CCN(CC)CC(=O)Nc1ccc(N)cc1 | 1.09 |
| O=C(O)Cc1ccc2c(c1)SCc1ccccc1C2=O | 2.97 |
| COc1ccc(CCNCC(O)COc2ccc(Cc3nc(C)c[nH]3)cc2)cc1OC (stereo not given) | 2.5 |
| CCC(C)C(N)C(=O)NC(C(=O)NCC(=O)NC(Cc1ccccc1)C(=O)O)C(C)CC (stereo not given) (H-IIGF-OH; configuration not given here) | -0.99 |
| CCOC(=O)CCCn1ccnc1[N+](=O)[O-] | 0.69 |
| CON=C(C(=O)NC1C(=O)N2C(C(=O)OCc3oc(=O)oc3C)=CCSC12)c1csc(N)n1 (stereo not given) | 0.17 |
| Cc1ccccc1-n1nnnc1N | 0.93 |

| SMILES | logP |
| --- | --- |
| Cc1cc(=O)oc2c1ccc1occ(C)c12 | 3.08 |
| CCCCCCNCCO | 1.67 |
| CCCC(=NOCC)C1=C(O)CC2(CCCC3CCCCC32)OC1=O (stereo not given) | 5 |
| Nc1nnnn1-c1cccc(F)c1 | 0.91 |
| CCNc1[nH]cnc2ncnc1-2 | 0.92 |
| Cc1cccc(C=[N+]([O-])C(C)(C)C)c1 | 1.6 |
| Cc1cc2ccc(=O)oc2c2ccoc12 | 2.39 |
| Cc1ccc(Cl)c(Cc2ccc(Cl)cc2Cl)c1 | 6.38 |
| Fc1cccc(CNc2ncnc3nc[nH]c23)c1 | 2.31 |
| CCCC(=O)OCOC(=O)N(C)N=Nc1ccc(C(=O)OCC)cc1 | 4.51 |
| CC(C)(Cc1c[nH]c2ccccc12)NCC(O)CON=C(C1CC1)C1CC1 (stereo not given) | 3.29 |
| CCCOc1ccc(CNc2[nH]cnc3ncnc2-3)cc1 | 3.15 |
| CC(=O)c1c2ccccc2cc2ccccc12 | 3.6 |
| COc1cc2ncnc(Nc3cc(F)cc(C(F)(F)F)c3)c2cc1OC | 4.66 |
| C#CCN(N=O)C(=O)NCCCC(NC(C)=O)C(=O)NCc1ccccc1 (stereo not given) | 1.12 |
| Cc1ccc(CO)c(C=NNC(=O)c2cccc(Br)c2)c1O | 3.91 |
| CCNC(=S)SC | 1.57 |
| COC(=O)C(C)=CC1C(C(=O)OCc2cccc(COc3ccccc3)c2)C1(C)C (stereo not given) | 6.06 |
| O=[N+]([O-])c1cn(Cc2ccccc2)cn1 | 1.36 |
| CC(=O)Nc1ccc(F)cc1F | 1.5 |
| CC(C)CC(N)C(=O)NC(C(=O)O)C(C)C (stereo not drawn) (H-Leu-Val-OH; configuration not given here) | -2.05 |
| COc1ccc(CCNCC(O)COc2ccc(-c3nc(C)c[nH]3)cc2Br)cc1OC (stereo not given) | 3.8 |
| CC(=NNC(=O)c1ccc(N)cc1)c1cnccn1 | 1.3 |
| COc1ccc(CCNCC(O)COc2ccc(Cc3nc(C(C)=O)c[nH]3)cc2)cc1OC (stereo not given) | 2.3 |
| CC(CC(=O)c1ccc(-c2ccc(F)cc2F)cc1)C(=O)O (stereo not given) | 3.78 |

| SMILES | logP |
| --- | --- |
| CC(C)CC(NC(=O)C(N)Cc1c[nH]c2ccccc12)C(=O)O (stereo not given) | -0.73 |
| CCC(C)C(NC(=O)C(N)Cc1ccccc1)C(=O)NC(C(=O)O)C(C)O (stereo not drawn) (H-Phe-Ile-Thr-OH; configuration not given here) | -1.95 |
| O=C1C=C(N2CCOCC2)C(=O)N1c1ccc(Cl)cc1 | 2.3 |
| CNC(C)Cc1ccc(OC)cc1 (stereo not given) | 1.91 |
| CON=C(C(=O)NC1C(=O)N2C(C(C)OC(C)=O)=CCSC12)c1csc(N)n1 (stereo not given) | 0.46 |
| CC(C)=CCNc1ncnc2c1ncn2[C@@H]1O[C@H](CO)[C@@H](O)[C@H]1O | 1.3 |
| COC(=O)C(C)NP(=O)(OCC1C=CC(n2cc(C)c(=O)[nH]c2=O)O1)Oc1cccc(F)c1 (stereo not given) | 1.08 |
| COc1ccc(C(=O)N2CCN(c3ccc4c(c3)CCC(=O)N4)CC2)cc1OC | 1.04 |
| O=C(O)Cc1c(O)cccc1Nc1c(Cl)cccc1Cl | 4.65 |
| COc1ccc(-c2ccsc2)cc1CNC1CCCNC1c1ccccc1 (stereo not given) | 4.8 |
| N#CCCOC1Cc2c(O)cc(O)cc2OC1c1ccc(O)c(O)c1 (stereo not given) | 0.96 |
| CC(C)C(N)C(=O)NC(C(=O)O)C(C)C (stereo not drawn) (H-Val-Val-OH; configuration not given here) | -2.82 |
| O=C(NC1CCCCCC1)NS(=O)(=O)c1cnccc1NC1CCCCC1 | 4.62 |
| COC(=O)C(=Cc1cnc(SC(C)=O)n1C)C(=O)OC | -0.43 |
| CCCCc1cnc(C2=NC(C)(C(C)C)C(=O)N2)c(C(=O)O)c1 (stereo not given) | 1.99 |
| Cc1nc2ccccc2c(=O)n1CC(=O)NCc1ccccc1 | 1.78 |
| O=C(NC1CCCCCC1)NS(=O)(=O)c1cnccc1NC1CCCCCC1 | 4.96 |
| CC(C)(C)[N+]([O-])=Cc1ccc(C(=O)O)cc1 | 1.1 |
| CCOC(=O)C1=C(C)NC(C)=C(C(=O)OC)C1c1cccc(OC)c1OC (stereo not given) | 3.58 |
| O=S(CCl)c1ccccc1 (stereo not given) | 1.47 |
| Nc1cccc(Cn2cnc3ccccc32)c1 | 1.92 |
| O=C1c2ccccc2-c2nnc(-c3ccccc3[N+](=O)[O-])cc21 | 2.64 |
| CCCCC(C)CC(O)C=CC1C(O)CC2CC(CCOCC(=O)OC)CC21 (stereo not given) | 4.5 |
| COC(=O)c1ccc(OP(=O)(NC(C)C(=O)OC)OCC2C=CC(n3cc(C)c(=O)[nH]c3=O)O2)cc1 (stereo not given) | 1.01 |
| OC(CNCCc1ccccc1)CON=C(C1CC1)C1CC1 (stereo not given) | 2.44 |
